Test results from patent publication US11214594B2, “Antimicrobial peptide having synergistic antibacterial effect with antibiotics on multidrug resistant bacteria, and use thereof” (priority 2016, dated 2022).
In brackets after ≈: the same amount, converted by molar mass. Where a SMILES comes first, the peptide text is derived from it.

Experiments:
P. aeruginosa = test: microbe, parasite or virus in culture; assay type: cell-based, Pseudomonas aeruginosa
Protocol: (§1) For the antibacterial activity, a minimal inhibitory concentration (MIC) of a peptide in which fungus bodies were not split in an MH medium with sufficient nutrients was measured.
(§2) Specifically, the strains described in the following [Table 2] were purchased and diluted with an MH medium such that the number of bacteria was 2×10^6 colony-forming units (CFUs), 100 μl of each of the diluted strains was aliquoted into a 96-well microtiter plate, and then 100 μl of a peptide solution diluted with the MH medium (solution diluted stepwise at 2: 1) was added to each well.

A. baumannii [1] = test: microbe, parasite or virus in culture; assay type: cell-based, Acinetobacter baumannii
Protocol: as §1, §2

MDRAB 12035 = test: microbe, parasite or virus in culture; assay type: cell-based, Acinetobacter baumannii
Protocol: as §1, §2

MDRST 8007 = test: Minimal inhibitory concentration (MIC), single agent; assay type: cell-based, Salmonella typhimurium; conditions: agent alone
Protocol: as §1, §2

S. epidermidis = test: microbe, parasite or virus in culture; assay type: cell-based, Staphylococcus epidermidis
Protocol: as §1, §2

E. coli = test: MIC of antibiotic during combined treatment with antimicrobial peptide; assay type: cell-based, Escherichia coli; conditions: for Antibiotic MIC, Erythromycin / Antibiotic MIC, Linezolid / Antibiotic MIC, Vancomycin: E. coli
Protocol: (§3) Thereafter, the MIC value of each mixed solution was determined by diluting the antibiotic solution with the MH medium, adding 50 μl of the diluted solution to each well, and performing an experiment even under a reversed condition.

A. baumannii [2] = test: as above; assay type: cell-based, Acinetobacter baumannii; conditions: for Antibiotic MIC, Erythromycin / Antibiotic MIC, Linezolid / Antibiotic MIC, Vancomycin: A. baumannii
Protocol: as §3

[3] = combined with peptide at 1 μg/ml
[4] = combined with peptide at 2 μg/ml
[5] = combined with peptide at 4 μg/ml
[6] = combined with peptide at 6 μg/ml
[7] = combined with peptide at 8 μg/ml
[8] = combined with peptide at 16 μg/ml
[9] = combined with peptide at 32 μg/ml

CC[C@H](C)[C@H](NC(=O)[C@H](CCCCN)NC(=O)[C@H](Cc1c[nH]c2ccccc12)NC(=O)[C@@H](N)CCCNC(=N)N)C(=O)N[C@@H](Cc1ccccc1)C(=O)N[C@@H](CCCCN)C(=O)N[C@@H](CCCCN)C(=O)N[C@H](C(=O)N1CCC[C@H]1C(=O)N[C@@H](CCCCN)C(=O)N[C@@H](CC(C)C)C(=O)N[C@@H](CC(C)C)C(=O)N[C@@H](Cc1c[nH]cn1)C(=O)N[C@@H](CCC(=O)O)C(=O)N[C@@H](Cc1ccccc1)C(=O)N[C@@H](CCCCN)C(=O)N[C@@H](CCCCN)C(=O)N[C@@H](Cc1ccccc1)C(N)=O)[C@@H](C)CC [PapMA-12, RWK IFK KIP KLL HEF KKF-NH2] (H-RWKIFKKIPKLLHEFKKF-NH2; N-terminus assumed)
Minimal inhibitory concentration MIC (P. aeruginosa): 64 µg/mL (≈ 26.8 µM)
Minimal inhibitory concentration MIC (A. baumannii [1]): 8 µg/mL (≈ 3.35 µM)
Antibacterial activity relative to PapMA-1 (A. baumannii [1]; A. baumannii and S. typhimurium): at least twice as high
Minimal inhibitory concentration MIC (MDRAB 12035): 8 µg/mL (≈ 3.35 µM)
Peptide MIC, peptide alone (MDRAB 12035): 8 µg/mL
Minimal inhibitory concentration MIC (MDRST 8007): 16 µg/mL (≈ 6.71 µM)
Minimal inhibitory concentration MIC (S. epidermidis): >128 µg/mL
Synergistic effect of antibacterial activity with existing antibiotics compared with PapMA-1 (E. coli; E. coli and MDREC1229): higher level than the PapMA-1 peptide
Antibiotic MIC, Erythromycin (E. coli; erythromycin combined with peptide at 1 μg/ml): 64 µg/mL
Antibiotic MIC, Erythromycin (E. coli; erythromycin combined with peptide at 2 μg/ml): 32 µg/mL
Antibiotic MIC, Erythromycin (E. coli; erythromycin combined with peptide at 4 μg/ml): 2 µg/mL
Antibiotic MIC, Erythromycin (E. coli; erythromycin combined with peptide at 6 μg/ml): 1 µg/mL
Antibiotic MIC, Erythromycin (E. coli; erythromycin combined with peptide at 8 μg/ml): 0 µg/mL
Antibiotic MIC, Erythromycin (E. coli; erythromycin combined with peptide at 16 μg/ml): 0 µg/mL
Antibiotic MIC, Erythromycin (E. coli; erythromycin combined with peptide at 32 μg/ml): 0 µg/mL
Antibiotic MIC, Erythromycin (E. coli; erythromycin combined with peptide at 64 μg/ml): 0 µg/mL
Antibiotic MIC, Linezolid (E. coli; linezolid combined with peptide at 1 μg/ml): >128 µg/mL
Antibiotic MIC, Linezolid (E. coli; linezolid combined with peptide at 2 μg/ml): 128 µg/mL
Antibiotic MIC, Linezolid (E. coli; linezolid combined with peptide at 4 μg/ml): 8 µg/mL
Antibiotic MIC, Linezolid (E. coli; linezolid combined with peptide at 6 μg/ml): 2 µg/mL
Antibiotic MIC, Linezolid (E. coli; linezolid combined with peptide at 8 μg/ml): 0 µg/mL
Antibiotic MIC, Linezolid (E. coli; linezolid combined with peptide at 16 μg/ml): 0 µg/mL
Antibiotic MIC, Linezolid (E. coli; linezolid combined with peptide at 32 μg/ml): 0 µg/mL
Antibiotic MIC, Linezolid (E. coli; linezolid combined with peptide at 64 μg/ml): 0 µg/mL
Antibiotic MIC, Vancomycin (E. coli; vancomycin combined with peptide at 1 μg/ml): >128 µg/mL
Antibiotic MIC, Vancomycin (E. coli; vancomycin combined with peptide at 2 μg/ml): 128 µg/mL
Antibiotic MIC, Vancomycin (E. coli; vancomycin combined with peptide at 4 μg/ml): 16 µg/mL
Antibiotic MIC, Vancomycin (E. coli; vancomycin combined with peptide at 6 μg/ml): 8 µg/mL
Antibiotic MIC, Vancomycin (E. coli; vancomycin combined with peptide at 8 μg/ml): 0 µg/mL
Antibiotic MIC, Vancomycin (E. coli; vancomycin combined with peptide at 16 μg/ml): 0 µg/mL
Antibiotic MIC, Vancomycin (E. coli; vancomycin combined with peptide at 32 μg/ml): 0 µg/mL
Antibiotic MIC, Vancomycin (E. coli; vancomycin combined with peptide at 64 μg/ml): 0 µg/mL
Synergistic effect of antibacterial activity with existing antibiotics compared with PapMA-1 (A. baumannii [2]; A. baumannii and MDRAB 12035): higher level than the PapMA-1 peptide
Antibiotic MIC, Erythromycin (A. baumannii [2]; [3]): 16 µg/mL
Antibiotic MIC, Linezolid (A. baumannii [2]; [3]): 128 µg/mL
Antibiotic MIC, Vancomycin (A. baumannii [2]; [3]): >128 µg/mL
Antibiotic MIC, Erythromycin (A. baumannii [2]; [4]): 8 µg/mL
Antibiotic MIC, Linezolid (A. baumannii [2]; [4]): 32 µg/mL
Antibiotic MIC, Vancomycin (A. baumannii [2]; [4]): 64 µg/mL
Antibiotic MIC, Erythromycin (A. baumannii [2]; [5]): 1 µg/mL
Antibiotic MIC, Linezolid (A. baumannii [2]; [5]): 4 µg/mL
Antibiotic MIC, Vancomycin (A. baumannii [2]; [5]): 8 µg/mL
Antibiotic MIC, Erythromycin (A. baumannii [2]; [6]): 0.25 µg/mL
Antibiotic MIC, Linezolid (A. baumannii [2]; [6]): 1 µg/mL
Antibiotic MIC, Vancomycin (A. baumannii [2]; [6]): 2 µg/mL
Antibiotic MIC, Erythromycin (A. baumannii [2]; [7]): 0 µg/mL
Antibiotic MIC, Linezolid (A. baumannii [2]; [7]): 0 µg/mL
Antibiotic MIC, Vancomycin (A. baumannii [2]; [7]): 0 µg/mL
Antibiotic MIC, Erythromycin (A. baumannii [2]; [8]): 0 µg/mL
Antibiotic MIC, Linezolid (A. baumannii [2]; [8]): 0 µg/mL
Antibiotic MIC, Vancomycin (A. baumannii [2]; [8]): 0 µg/mL
Antibiotic MIC, Erythromycin (A. baumannii [2]; [9]): 0 µg/mL
Antibiotic MIC, Linezolid (A. baumannii [2]; [9]): 0 µg/mL
Antibiotic MIC, Vancomycin (A. baumannii [2]; [9]): 0 µg/mL
